IC50 data for 34 molecules are collected here from patent US20070259879A1, “Piperazine and piperidine biaryl derivatives” (priority 2006, published 2007).

pIC50: −log10 of the molar value.

The assay concerns HIV-1 pseudotyped virus. Briefly: HIV-1 pseudotyped virus assay (luciferase reporter gene, single cycle of infection). The note with it: Human immunodeficiency virus 1, CCR5, 72 h, read-out: Activity (antiviral activity, IC50). In kind it is cell-based. Summed up: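 Single-cycle luciferase-reporter pseudovirus made by co-transfecting 293T cells with HIV-1 envelope plasmid plus env-defective, nef-replaced backbone; infects CD4/CCR5 or CXCR4 target cells. Compounds added before virus, serial dilutions in duplicate, two experiments; 3-day culture, lysis, luminescence. IC50 = 50% signal reduction interpolated from titration curve.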
(In general: A reporter such as luciferase makes a cellular process visible.)
For the molecule `C[C@@H]1CN(C(=O)c2ccccc2)CCN1C(=O)C(=O)c1ccc(-c2cc[nH]n2)c(Cl)c1N(C)C` [Example 221], the pIC50 (usually the IC50 on a negative log10 scale, so that one unit is a factor of ten) was greater than 5.30.

As for `C[C@@H]1CN(C(=O)c2ccccc2)CCN1C(=O)C(=O)c1cc(Cl)c(-c2cc[nH]n2)cc1N(C)C` [Example 222], the negative-log IC50 (pIC50) is less than 5.30.

As for `C[C@@H]1CN(C(=O)c2ccccc2)CCN1C(=O)C(=O)c1ccc(-c2cc[nH]n2)cc1O` [Example 223], the negative logarithm of the IC50 (pIC50) was greater than 5.30.

In the case of `Cc1cc(-c2ccc(C(=O)C(=O)N3CCN(C(=O)c4ccccc4)C[C@H]3C)c(O)c2)on1` [Example 224], the pIC50 is less than 5.30.

Regarding `C[C@@H]1CN(C(=O)c2ccccc2)CCN1C(=O)C(=O)c1ccc(Br)c(Cl)c1` [Example 225], the negative logarithm of the IC50 (pIC50) was greater than 5.30.

As for `COc1cc(Br)ccc1C(=O)C(=O)N1CCN(C(=O)c2ccccc2)C[C@H]1C` [Example 226], the pIC50 is greater than 5.30.

Regarding `CNc1cc(-c2cc[nH]n2)ccc1C(=O)C(=O)N1CCN(C(=O)c2ccccc2)C[C@H]1C` [Example 227], the negative logarithm of the IC50 (pIC50) was less than 5.30.

Turning to `COc1cc(Br)c(Cl)cc1C(=O)C(=O)N1CCN(C(=O)c2ccccc2)CC1` [Example 228], the pIC50 is greater than 5.30.

With `COc1cc(-c2onc(C)c2Cl)ccc1C(=O)C(=O)N1CCN(C(=O)c2ccccc2)C[C@H]1C` [Example 229], the negative logarithm of the IC50 (pIC50) was greater than 5.30.

On to `C[C@@H]1CN(C(=O)c2ccccc2)CCN1C(=O)C(=O)c1cc(Cl)c(-c2cc[nH]n2)c(Cl)c1N` [Example 230], for which the pIC50 was less than 5.30.

For the molecule `C[C@@H]1CN(C(=O)c2ccccc2)CCN1C(=O)C(=O)c1ccc(-n2cncn2)c(Cl)c1` [Example 231], the pIC50 is less than 5.30.

For `C[C@@H]1CN(C(=O)c2ccccc2)CCN1C(=O)C(=O)c1ccc(-n2ccnn2)c(Cl)c1` [Example 232], the pIC50 was less than 5.30.

For the molecule `Cc1nnc(-c2ccc(C(=O)C(=O)N3CCN(C(=O)c4ccccc4)C[C@H]3C)cc2)s1` [Example 233], the negative-log IC50 (pIC50) was greater than 5.30.

For `C[C@@H]1CN(C(=O)c2ccccc2)CCN1C(=O)C(=O)c1ccc(-c2nc[nH]n2)cc1` [Example 234], the negative logarithm of the IC50 (pIC50) is greater than 5.30.

In the case of `Cc1cc(-c2ccc(C(O)C(=O)N3CCN(C(=O)c4ccccc4)C[C@H]3C)cc2)on1` (stereo partly shown) [Example 235], the pIC50 is less than 5.30.

`COc1cc(-n2ccnn2)c(Cl)cc1C(=O)C(=O)N1CCN(C(=O)c2ccccc2)CC1` [Example 236]: the pIC50 is greater than 5.30.

In the case of `COc1cc(-c2cc[nH]n2)c(Cl)cc1C(=O)C(=O)N1C2CCC1CN(C(=O)c1ccccc1)C2` [Example 237], the pIC50 was less than 5.30.

In the case of `COc1cc(OC)c(C(=O)C(=O)N2CCN(C(=O)c3ccccc3)C[C@H]2C)cn1` [Example 238], the negative-log IC50 (pIC50) was less than 5.30.

In the case of `COc1cc(-c2cnn(C)c2)ncc1C(=O)C(=O)N1CCN(C(=O)c2ccccc2)C[C@H]1C` [Example 239], the negative-log IC50 (pIC50) is greater than 5.30.

`CC1CN(C(=O)c2ccccc2)CCN1C(=O)C(=O)c1ccc(-n2cccn2)cc1` (stereo not shown) [Example 240]: the pIC50 was greater than 5.30.

Regarding `C[C@@H]1CN(C(=O)c2ccccc2)CCN1C(=O)C(=O)c1c[nH]c(-c2ccc3[nH]ccc3c2)c1` [Example 241], the pIC50 is less than 5.30.

Turning to `C[C@@H]1CN(C(=O)c2ccccc2)CCN1C(=O)C(=O)c1cnc(-c2ccccc2)c(Cl)c1O` [Example 242], the pIC50 is less than 5.30.

With `C[C@@H]1CN(C(=O)c2ccccc2)CCN1C(=O)C(=O)c1cnc(-c2cccs2)cc1O` [Example 243], the pIC50 is less than 5.30.

For the molecule `C[C@@H]1CN(C(=O)c2ccccc2)CCN1C(=O)C(=O)c1cnc(-c2ccccc2)cc1O` [Example 244], the pIC50 is less than 5.30.

Take `C[C@@H]1CN(C(=O)c2ccccc2)CCN1S(=O)(=O)c1ccc(C(=O)c2cccs2)cc1` [Example 245]: the pIC50 was less than 5.30.

In the case of `C[C@@H]1CN(C(=O)c2ccccc2)CCN1S(=O)(=O)c1ccc(C(=O)c2ccsc2)s1` [Example 246], the pIC50 was less than 5.30.

Regarding `CC1CN(C(=O)c2ccccc2)CCN1S(=O)(=O)c1ccc(C(=O)c2ccco2)cc1` (stereo not shown) [Example 247], the pIC50 is less than 5.30.

For the molecule `C[C@@H]1CN(C(=O)c2ccccc2)CCN1S(=O)(=O)c1ccc(C(=O)c2ccon2)s1` [Example 248], the negative-log IC50 (pIC50) is less than 5.30.

Take `CC1CN(C(=O)c2ccccc2)CCN1S(=O)(=O)c1ccc(C(=O)n2ccnc2)cc1` (stereo not shown) [Example 249]: the negative logarithm of the IC50 (pIC50) was less than 5.30.

With `Cc1cc(C)n(-c2ccc(C(=O)C(=O)N3CCN(C(=O)c4ccccc4)C[C@H]3C)cc2)n1` [Example 250], the negative logarithm of the IC50 (pIC50) is less than 5.30.

Consider `C[C@@H]1CN(C(=O)c2ccccc2)CCN1C(=O)C(=O)c1cccc(-c2cnco2)c1` [Example 251], for which the pIC50 is less than 5.30.

Turning to `C[C@@H]1CN(C(=O)c2ccccc2)CCN1C(=O)C(=O)c1cccc(-c2ccccn2)c1` [Example 252], the pIC50 is less than 5.30.

As to `C[C@@H]1CN(C(=O)c2ccccc2)CCN1C(=O)C(=O)c1cccc(-c2ncccn2)c1` [Example 253], the pIC50 was less than 5.30.

With `COc1cc(OC)nc(-c2ccc(C(=O)C(=O)N3CCN(C(=O)c4ccccc4)C[C@H]3C)cc2)n1` [Example 254], the pIC50 was less than 5.30.
